The nature of data set [1]: Liver microsome stability test, mouse (MLM). In kind it is in vitro ADME. The note with it: mouse liver microsomes, NADPH; read-out: T1/2 (min) Mouse. How it is done: (§1) The 10 mM test compound/ketanserin (Energy Chemical, Cat. No. E020711) stock solution was diluted with acetonitrile to 0.5 mM compound/reference compound. The frozen 100 mM NADPH (MCE, Cat. No. HYF003/CS-4998) was diluted with phosphate buffer solution to a concentration of 6 mM; 20 mg/mL HLM (BioIVT, Cat. No. X008067) or MLM (BioIVT, Cat. No. M00501) was diluted with phosphate buffer solution to a concentration of 0.75 mg/ml, and added to a 96-round well plate, respectively, and shaken evenly on an oscillator at 600 rpm. The above oscillated samples were pipetted 3 times with an electric pipettor and dispensed into a new 96-well plate (containing NADPH group (n=2), NADPH-free group was added at 0 and 45 min (n=1)), and there were a total of 5 groups of 0, 5, 15, 30 and 45 min, respectively. After pre-incubation of the 5 groups of samples at 37° C. for 5 min, glacial acetonitrile was quickly added to the 0 min group for precipitation, and after rapid vortexing, K-Buffer or NADPH was added with an electric pipettor. The remaining groups were sequentially added with 6 mM NADPH to start the reaction in the order of 45, 30, 15 and 5 min samples, and K-Buffer solution was added to the NADPH-free group. After mixing at 1000 rpm in an oscillating mixer for 10 s, they were continuously incubated at 37° C. for the corresponding time. The reaction was terminated by quickly adding glacial acetonitrile internal standard using an electric pipettor; after vortexing at 900 rpm for 10 seconds, heat sealing was performed, oscillation was performed on an oscillator for 10 minutes, centrifugation was performed at 4000 rpm for 50 minutes, the supernatant was collected and diluted with pure water, and the test compound and the reference compound were quantified by LC-MS/MS analysis.
In general terms: Microsomes from liver hold many membrane-bound enzymes, among them those of drug oxidation.

The nature of data set [2]: Caco-2 cell permeability test. It is filed as in vitro ADME. The note with it: human, pH 7.4, Caco-2, 10 μM; for Papp A→B at 120 min, 10 μM: A to B; for Papp B→A at 120 min, 10 μM: B to A. In short, it runs like this:
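Caco-2 monolayers grown 21–28 days, integrity checked by TEER; test compound at 10 μM in HBSS (10 mM HEPES, pH 7.4) with 0.5% BSA dosed apical or basolateral. After 120 min at 37 °C, A→B and B→A transport quantified by LC-MS/MS; Papp, efflux ratio and recovery calculated.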
In general terms: Caco-2 cells form a polarised layer with tight junctions and transporters.

The nature of data set [3]: Pharmacokinetic test in mice. It is filed as in vivo. The note with it: male, ICR, mouse, plasma; for AUC / Cmax: 25 mg/kg, po 25 mpk; for clearance: 2.5 mg/kg, iv 2.5 mpk. Here is the method:
ICR male mice (15 to 35 g, 5 to 10 weeks old, Shanghai Xipuer-Bikai Experimental Animal Co., Ltd.) were selected as test animals in this study. The LC-MS/MS method was used to quantitatively determine drug concentrations in the plasma of mice at different time points after intravenous injection or oral gavage administration of the test compound to evaluate the pharmacokinetic characteristics of the compound in mice. The clear solution of the test compound was injected into ICR mice via the tail vein (without fasting, solvent: 40% hydroxypropyl-β-cyclodextrin) and administered to ICR mice by oral gavage (fasting for 10 to 14 hours, free drinking water, solvent: 0.2% hydroxypropyl cellulose, 0.5% Tween 80). For intravenous administration, blood was collected from the submandibular venous plexus at 0.033, 0.083, 0.25, 0.5, 1, 2, 4, 8, and 24 hours after administration, placed in an anticoagulant tube with EDTA-K2 (Jiangsu Kangjian Medical Supplies Co., Ltd.), mixed, and centrifuged at 2-8° C., 6800 g for 6 minutes to obtain plasma; for oral gavage administration, blood was collected from the submandibular venous plexus at 0.083, 0.25, 0.5, 1, 2, 4, 6, 8, and 24 hours after administration, placed in an anticoagulant tube with EDTA-K2 (Jiangsu Kangjian Medical Supplies Co., Ltd.), mixed, and centrifuged at 2-8° C., 6800 g for 6 minutes to obtain plasma. The blood drug concentration was determined by LC-MS/MS, and the relevant pharmacokinetic parameters were calculated by the non-compartmental linear logarithmic trapezoidal method using Phoenix WinNonlin™ Version 7.0 (Pharsight, USA) pharmacokinetic software.

Data set [4] is described as follows: Liver microsome stability test, human (HLM). The note with it: human liver microsomes, NADPH; read-out: T1/2 (min) Human. It is filed as in vitro ADME. How it is done:
as §1

Broadly, the efflux ratio is the permeability from basolateral to apical divided by that in the opposite direction, in the common usage. As usually defined, the Papp A→B is the apparent permeability from the apical to the basolateral side of a cell layer. Read a high Papp A→B as ready permeation. One may read the Papp B→A as the apparent permeability from the basolateral to the apical side of a cell layer. The term AUC denotes the area under the concentration-time curve, a measure of exposure. A higher AUC goes with more exposure. Usually Cmax stands for the highest concentration seen after dosing. For orientation: clearance means the volume of plasma or blood freed of the substance per unit of time. For the compound `CNC(=O)c1ccc(NCC#Cc2nc3c(NC4CCC(N5CC6(COC6)C5)CC4F)cccn3c2CC(F)(F)F)c(OC)c1` (single isomer, unassigned) [Compound 35-6i], in data set [1], the half-life was determined as 19.2 min. Further, in data set [2], the efflux ratio at 120 min, 10 μM was 4.31; the Papp A→B at 120 min, 10 μM turned out to be 2.66 ×10⁻⁶ cm/s; the Papp B→A at 120 min, 10 μM was determined as 11.4 ×10⁻⁶ cm/s. In data set [3], this compound had an AUC of 19700 ng·h/mL, a Cmax of 6860 ng/mL and a clearance of 20 mL/min/kg.
With `[2H]C([2H])([2H])NC(=O)c1ccc(NCC#Cc2cc3c(NC4CCC(N5CC6(COC6)C5)CC4F)cccn3c2CC(F)(F)F)c(OC([2H])([2H])[2H])c1` (single isomer, unassigned) [Compound 74d], in data set [1], the half-life was determined as 22 min. For the same compound, the half-life in data set [4] came out at 55.8 min. In data set [3], the AUC was determined as 17400 ng·h/mL, the Cmax stood at 4160 ng/mL and the clearance turned out to be 17 mL/min/kg.
On to `CNC(=O)c1ccc(NCC#Cc2nc3c(N[C@@H]4CCN(C)C[C@@H]4F)cccn3c2CC(F)(F)F)c(OC)c1` [Compound 5], for which, in data set [2], the efflux ratio at 120 min, 10 μM turned out to be 8.27; the Papp A→B at 120 min, 10 μM came out at 2.8 ×10⁻⁶ cm/s; the Papp B→A at 120 min, 10 μM was determined as 23.1 ×10⁻⁶ cm/s. In data set [3], this compound registered an AUC of 4070 ng·h/mL, a maximum concentration (Cmax) of 1140 ng/mL and a clearance of 54 mL/min/kg.
As for `COc1cc(C(=O)NC2CC2)ccc1NCC#Cc1nc2c(NC3CC[C@@H](N4CC5(COC5)C4)C[C@@H]3F)cccn2c1CC(F)(F)F` (stereo partly drawn) [Compound 54], in data set [1], the half-life turned out to be 78.4 min. In addition, the half-life in data set [4] was found to be 32 min. Besides, in data set [2], the efflux ratio at 120 min, 10 μM was 2.24; the apical-to-basolateral permeability (Papp A→B) at 120 min, 10 μM amounted to 2.3 ×10⁻⁶ cm/s; the Papp B→A at 120 min, 10 μM is 5.16 ×10⁻⁶ cm/s.
As for `CNC(=O)c1ccc(NCC#Cc2nc3c(NC4CC[C@@H](N5CC6(COC6)C5)C[C@@H]4F)cccn3c2CC(F)(F)F)c(OCF)c1` (stereo partly drawn) [Compound 58], the half-life in data set [1] is 33 min. Moreover, the half-life in data set [4] stood at 37.5 min. Besides, in data set [2], the efflux ratio at 120 min, 10 μM turned out to be 3.09; the Papp A→B at 120 min, 10 μM stood at 2.41 ×10⁻⁶ cm/s; the Papp B→A at 120 min, 10 μM turned out to be 7.46 ×10⁻⁶ cm/s.
The corresponding values for `[2H]C([2H])([2H])NC(=O)c1ccc(NCC#Cc2nc3c(NC4CC[C@@H](N5CC6(COC6)C5)C[C@@H]4F)cccn3c2CC(F)(F)F)c(OC([2H])([2H])[2H])c1` (stereo partly drawn) [Compound 64] are 55 min, 44 min, 1.22, 4.92 ×10⁻⁶ cm/s and 5.99 ×10⁻⁶ cm/s.

Values taken from US20260132128A1, “COMPOUND FOR RECOVERING P53 MUTATION FUNCTION AND USE THEREOF” (SHENZHEN ZHONGGE BIOLOGICAL TECHNOLOGY CO., LTD., priority 2022, published 2026).
